Results from patent US7091040B1, “P450/acetaminophen genetically directed enzyme prodrug therapy (GDEPT)” (Innovata PLC, priority 1999, dated 2006).

Assays:
[1] = tested on: COS cells; assay: Viability of COS cells transiently transfected with mouse CYP1A2 versus non-transfected COS cells, tritiated thymidine incorporation; format: cell-based
Procedure: FIG. 1 is a graphical representation of an acetaminophen titration showing the sensitivity of COS cells transiently transfected with a vector incorporating mouse CYP1A2 and non-transfected control COS cells. Cell viability is monitored by tritiated thymidine incorporation;
FIG. 2 is a cell viability time course of COS cells transiently transfected with mouse CYP1A2 and non-transfected control COS cells over a 24 hr period.
Acetaminophen concentration is 10 mM. Cell viability is monitored by tritiated thymidine incorporation;
COS cells are plated at 1.5×10^5 per well in 6 well tissue culture dishes the evening before transfection. […] All tissue culture reagents can be obtained from Gibco BRL, Paisley, UK.
To the LPA/DNA complex, 200 μl of serum free medium is added to each LPA/DNA sample which is then gently added to the cells over a period of 3–4 seconds. Cells are returned to a 37° C. CO2 incubator for 6 hours. […]
Transfected COS cells are either exposed to various concentrations of acetaminophen or incubated in the presence of 10 mM acetaminophen and cell viability monitored with time. ^3H-thymidine (Amersham International UK, 100 Ci/mmol, 5 μCi per assay), is added to treated and control cultures and aliquots removed and acid precipitable counts assessed by liquid scintillation using a Beckton Liquid Scintillation Counter.

[2] = tested on: HCT116 cells; assay: Bystander effect on viability of HCT116 cells co-cultured with H1A2 MZ cells in the presence of acetaminophen, trypan blue exclusion; format: cell-based, human; conditions: for viability at 4000 µM: Homo sapiens
Procedure: (§1) Tumour cells or V79 MZ cells (non transfected, parental cells) were co-cultured overnight with various mixtures of H1A2 MZ cells (as indicated in the Table), washed with PBS and incubated with 4 mM acetaminophen in PBS for 6 h at 37° C. the cells were then washed once with PBS and maintained for either 24 or 48 h in culture medium appropriate to each cell type, as detailed in the Methods section. At 0, 6, 24 or 48 h the cells were washed in PBS and viability of the mixed cell population determined by trypan blue exclusion. The data shown are mean values±SEM of 4 separate determinations. Statistical significance was determined at each time point by comparing viability measurements in the mixed cell populations with both the viability determined at 0 h and in the absence of H1A2 MZ cells in the mixture 2×2 contingency tables using the 2-tailed Chi-squared test with Yate's correction. Viability was determined in a total of 1500 cells at each time point. Levels of significance are indicated as **p<0.001; ***p<0.0001;
(§2) For cell viability experiments 200,000 cells per well were plated on 12 well plates (Beckton-Dickenson, Oxford, UK), using the medium and conditions required by the tumour cell line and allowed to adhere overnight. After this the cells were washed with PBS before the addition of acetaminophen in 0.1 ml PBS (concentrations of 0.1–20 mM acetaminophen were dissolved in PBS by sonication) and then maintained at 37° C. At the appropriate time points, cells were removed from the plates by trypsinisation and collected by centrifugation. Cell viability was measured as ability to exclude trypan blue. Cells were counted at ×100 magnification using an Improved Neubauer haemocytometer; all cell counts are the mean of duplicate determinations of five fields from duplicate experiments.
(§3) V79 MZ Chinese hamster cells were maintained in Dulbecco-Vogt's modified Eagle's Medium (DMEM) supplemented with 10% foetal calf serum 9FCS), 2 mM L-glutamine, penicillin (100 U/ml and streptomycin (100 μg/ml) (all tissue culture reagents were obtained from Gibco BRL, Paisley, UK). H1A2 MZ cells, which are V79 MZ cells transfected with the human CYP1A2 gene, were also maintained in supplemented DMEM with the addition of geneticin at a concentration of 4 mg/ml. SK-OV-3 cells were grown in DMEM supplemented with 15% FCS and 2 mM L-glutamine, without the addition of antibiotics. RPMI-1640 medium with 10% FCS, 2 mM L-glutamine, penicillin (100 U/ml) and streptomycin ([…]) was required by the HCT116 cells. These cell lines were maintained at 37° C. with 100% humidity and 5% CO2. […] At confluence cells were removed from tissue culture flasks by inubation with trypsin-EDTA for 5 min, diluted 1:3–1:6 in fresh medium and seeded onto fresh flasks. The tumour cell lines were obtained from the European Collection of Cell Cultures.

[3] = tested on: MDA-MB-361 cells; assay: Bystander effect on viability of MDA-MB-361 cells co-cultured with H1A2 MZ cells in the presence of acetaminophen, trypan blue exclusion; format: cell-based, human; conditions: for viability at 4000 µM: Homo sapiens
Procedure: as §1, §2, §3

[4] = as above; format: cell-based, human; conditions: human; for viability at 4 mM: 4 mM acetaminophen 6 h; for viability at 0 h, 4 mM / viability at 6 h, 4 mM: 4 mM acetaminophen in PBS
Procedure: as §1, §2, §3

[5] = MDA-MB-361 cells + 10% H1A2 MZ cells
[6] = MDA-MB-361 cells + 25% H1A2 MZ cells
[7] = MDA-MB-361 cells + 50% H1A2 MZ cells

## CC(=O)Nc1ccc(O)cc1 [acetaminophen]
[1]; 10 mM acetaminophen, transfected COS cells versus non-transfected control cells over 24 hrs
  extent of acetaminophen sensitivity over time (tritiated thymidine incorporation): increases markedly during the first 4–8 hrs
[1]; acetaminophen titration, COS cells transfected with CYP1A2 (48 hrs expression) versus non-transfected control COS cells
  sensitivity to acetaminophen (tritiated thymidine incorporation): significant increase in sensitivity
[2]; HCT116 cells + 5% H1A2 MZ cells, 4 mM acetaminophen 6 h, then 24 h in culture medium
  Viability (%): zero
[2]; HCT116 cells incubated with 5 and 10% H1A2 MZ cells, 4 mM acetaminophen, 6 h
  susceptibility to cytotoxicity produced by the activation of acetaminophen: disproportionate decrease in viability
[2]; HCT-116, 0 h, HCT116 cells + 5% H1A2 MZ cells, 4 mM acetaminophen in PBS, 0 h
  viability at 4000 µM: 98 ± 1%
[2]; HCT-116, 0 h, HCT116 cells + 10% H1A2 MZ cells, 4 mM acetaminophen in PBS, 0 h
  viability at 4000 µM: 98 ± 1%
[2]; HCT-116, 0 h, HCT116 cells + 25% H1A2 MZ cells, 4 mM acetaminophen in PBS, 0 h
  viability at 4000 µM: 97 ± 1%
[2]; HCT-116, 0 h, HCT116 cells + 50% H1A2 MZ cells, 4 mM acetaminophen in PBS, 0 h
  viability at 4000 µM: 98 ± 1%
[2]; HCT-116, 0 h, HCT116 cells, 0% H1A2 MZ cells, 4 mM acetaminophen in PBS, 0 h
  viability at 4000 µM: 96 ± 1%
[2]; HCT-116, 6 h, HCT116 cells + 5% H1A2 MZ cells, 4 mM acetaminophen in PBS, 6 h
  viability at 4000 µM: 69 ± 9%
[2]; HCT-116, 6 h, HCT116 cells + 10% H1A2 MZ cells, 4 mM acetaminophen in PBS, 6 h
  viability at 4000 µM: 60 ± 6%
[2]; HCT-116, 6 h, HCT116 cells + 25% H1A2 MZ cells, 4 mM acetaminophen in PBS, 6 h
  viability at 4000 µM: 56 ± 4%
[2]; HCT-116, 6 h, HCT116 cells + 50% H1A2 MZ cells, 4 mM acetaminophen in PBS, 6 h
  viability at 4000 µM: 42 ± 6%
[2]; HCT-116, 6 h, HCT116 cells, 0% H1A2 MZ cells, 4 mM acetaminophen in PBS, 6 h
  viability at 4000 µM: 96 ± 5%
[2]; HCT-116, HCT116 cells + 5% H1A2 MZ cells, 4 mM acetaminophen 6 h, then 24 h in culture medium
  viability at 4000 µM: 0%
[2]; HCT-116, HCT116 cells + 10% H1A2 MZ cells, 4 mM acetaminophen 6 h, then 24 h in culture medium
  viability at 4000 µM: 0%
[2]; HCT-116, HCT116 cells + 25% H1A2 MZ cells, 4 mM acetaminophen 6 h, then 24 h in culture medium
  viability at 4000 µM: 0%
[2]; HCT-116, HCT116 cells + 50% H1A2 MZ cells, 4 mM acetaminophen 6 h, then 24 h in culture medium
  viability at 4000 µM: 0%
[2]; HCT-116, HCT116 cells, 0% H1A2 MZ cells, 4 mM acetaminophen 6 h, then 24 h in culture medium
  viability at 4000 µM: 96 ± 2%
[3]; MDA-MB-361, 0 h, MDA-MB-361 cells + 5% H1A2 MZ cells, 4 mM acetaminophen in PBS, 0 h
  viability at 4000 µM: 98 ± 2%
[3]; MDA-MB-361, 0 h, MDA-MB-361 cells, 0% H1A2 MZ cells, 4 mM acetaminophen in PBS, 0 h
  viability at 4000 µM: 96 ± 1%
[3]; MDA-MB-361, 6 h, MDA-MB-361 cells + 5% H1A2 MZ cells, 4 mM acetaminophen in PBS, 6 h
  viability at 4000 µM: 85 ± 2%
[3]; MDA-MB-361, 6 h, MDA-MB-361 cells, 0% H1A2 MZ cells, 4 mM acetaminophen in PBS, 6 h
  viability at 4000 µM: 98 ± 4%
[3]; MDA-MB-361, MDA-MB-361 cells + 50% H1A2 MZ cells, 4 mM acetaminophen 6 h, then 24 h in culture medium
  viability at 4000 µM: 18%
[3]; MDA-MB-361, MDA-MB-361 cells, 0% H1A2 MZ cells, 4 mM acetaminophen 6 h, then 24 h in culture medium
  viability at 4000 µM: 95 ± 3%
[3]; MDA-MB-361, MDA-MB-361 cells, 0% H1A2 MZ cells, 4 mM acetaminophen 6 h, then 48 h in culture medium
  viability at 4000 µM: 97 ± 1%
[3]; MDA-MB-361 cells + 50% H1A2 MZ cells, 4 mM acetaminophen 6 h, then 48 h in culture medium
  Viability (%): no viable cells
[3]; MDA-MB-361 cells mixed with H1A2 MZ cells, 4 mM acetaminophen, 6 h
  susceptibility to cytotoxicity produced by the activation of acetaminophen: highly resistant to cytotoxicity
[4]; MDA-MB-361 cells + 5% H1A2 MZ cells, then 24 h in culture medium
  viability at 4 mM: 84 ± 7%
[4]; MDA-MB-361 cells + 5% H1A2 MZ cells, then 48 h in culture medium
  viability at 4 mM: 92 ± 4%
[4]; MDA-MB-361 cells + 10% H1A2 MZ cells, then 24 h in culture medium
  viability at 4 mM: 81 ± 9%
[4]; MDA-MB-361 cells + 10% H1A2 MZ cells, then 48 h in culture medium
  viability at 4 mM: 94 ± 7%
[4]; [5]
  viability at 0 h, 4 mM: 96 ± 3%
  viability at 6 h, 4 mM: 74 ± 7%
[4]; MDA-MB-361 cells + 25% H1A2 MZ cells, then 24 h in culture medium
  viability at 4 mM: 78 ± 9%
[4]; MDA-MB-361 cells + 25% H1A2 MZ cells, then 48 h in culture medium
  viability at 4 mM: 91 ± 6%
[4]; [6]
  viability at 0 h, 4 mM: 97 ± 1%
  viability at 6 h, 4 mM: 70 ± 11%
[4]; MDA-MB-361 cells + 50% H1A2 MZ cells, then 48 h in culture medium
  viability at 4 mM: 0%
[4]; [7]
  viability at 0 h, 4 mM: 98 ± 3%
  viability at 6 h, 4 mM: 42 ± 4%
